# Test results taken from US9446019B2, “Sparstolonin B based pharmaceutical agent for neuroblastoma treatment” (University of South Carolina, priority 2013, dated 2016).
# Columns and labels:
# Format in all cases: cell-based, human
# [1] = tested on: reactive oxygen species in neuroblastoma cells; assay: ROS generation, H2DCFDA fluorometry assay
# Method: The production of reactive oxygen species (ROS) in SsnB-treated neuroblastoma cells was detected by a cell-permeable fluorescence probe H2DCFDA (carboxy-2′,7′-dichlorodihydrofluorescein diacetate) according to the manufacturer's instructions (Invitrogen, Carlsbad, Calif.). Briefly, neuroblastoma cells were cultured in DMEM with 10% FBS in Lab-TekII chamber slides (Fisher Scientific, Pittsburg, Pa.) and treated with SsnB for 2 days (SH-SY5Y and IMR-32 cells), 3 days (NGP cell) or 4 days (SKNF-1 and SK-N-BE(2) cells). After treatments, cells were washed with Hank's buffered salt solution (HBSS; Thermo Scientific, Waltham, Mass.) and incubated with 25 μM of carboxy-H2DCFDA dye for 30 min at 37° C. in dark. Nuclei were counterstained with DAPI. Cells were washed three times with HBSS, mounted with Vectashield mounting medium (Vector Laboratories), and immediately examined under Nikon-E600 fluorescence microscopy equipped with fluorescein isothiocyanate (FITC) filter. Oxidation of H2DCFDA probe occurs almost exclusively in the cytosol, and generates a fluorescence that is proportional to ROS generation in that cell. As a negative control, cells without H2DCFDA dye were used to detect autofluorescence. The fluorometric analysis to detect generation of ROS was performed. Briefly, after treatments with SsnB as mentioned above, cells were labeled with carboxy-H2DCFDA dye (25 μM) for 30 min at 37° C. Cells were trypsinized, washed, and re-suspended in PBS and fluorescence intensity was monitored at excitation wavelength 485 nm and emission wavelength 530 nm with a spectramax spectrophotometer (Molecular Devices, Sunnyvale, Calif.).
# SsnB-induced generation of ROS was also evaluated by fluorometry assay. Neuroblastoma cells as treated above were incubated with H2DCFDA dye for 30 min and the fluorescence intensity was measured at 485 nm (excitation wavelength) and 530 nm (emission wavelength).
# [2] = tested on: intracellular GSH in neuroblastoma cells; assay: Cellular glutathione level, luminescence GSH-Glo assay
# Method: Cells treated with SsnB or DMSO were washed and re-suspended in PBS and the intracellular GSH level was measured by luminescence based GSH-Glo glutathione assay kit (Promega, Madison, Wis.) following manufacturer's protocol. The luminescence was monitored in a luminometer (Promega Biosystems, Sunnyvale, Calif.).
# At the cellular level, reduced glutathione (GSH) protects cells from oxidative damage resulted from increased superoxides, peroxides and free radicals. Since SsnB induces oxidative stress, SsnB affect of intracellular levels of GSH in neuroblastoma cells was examined. After treatment with SsnB for 2 days (SH-SY5Y and IMR-32), 3 days (NGP cells) or 4 days (SKNF-1 and SK-N-BE(2) cells), the cellular GSH level was measured by luminescence based glutathione assay kit.
# [3] = tested on: caspase-3 in neuroblastoma cells; assay: Cleaved caspase-3 by immunofluorescence and Western blotting
# Method: For immunofluorescence staining, cells grown in Lab-TekII chamber slides (Fisher Scientific, Pittsburgh, Pa.) were treated with SsnB in complete culture medium. After treatments, cells were washed with 1×PBS, fixed with 4% paraformaldehyde/PBS for 20 min, and permeabilized with 0.2% Triton X-100/PBS for 10 min at room temperature. Cells were washed with 1×PBS for 3 times and blocked with 5% immunoglobulin (IgG) free-bovine serum albumin (BSA; Jackson ImmunoResearch Laboratories, West Grove, Pa.) in 1×PBS for overnight at 4° C. Cells were incubated with antibody raised against active form of caspase-3 (Cell Signaling Technology, Danvers, Mass.) diluted in 2.5% BSA/PBS for overnight at 4° C. Primary antibodies were detected with secondary antibodies conjugated with fluorescein isothiocyanate (FITC; Santa Cruz Biotechnology, Dallas, Tex.) for 2 h at room temperature. After washing with 1×PBS, cells were mounted with antifade Vectashield mounting media (Vector Laboratories, Burlingame, Calif.), and signals were visualized under Nikon-E600 fluorescence microscope. Nuclei were counterstained with 4′,6-diamidino-2-phenylindole (DAPI; Sigma).
# After treatment with SsnB, cells were collected, washed with 1×PBS, and lysed with 1× cell lysis buffer (Cell Signaling Technology, Danvers, Mass.) containing phenylmethylsulfonyl fluoride (PMSF) and protease inhibitors (aprotinin and leupeptin) for 30 min on ice, and centrifuged at 12000×rpm for 10 min at 4° C. Supernatant (total cell protein) was collected and stored at −80° C. Protein concentration was determined by bicinchoninic acid method using BCA protein assay kit (Pierce/ThermoScientific, Waltham, Mass.). Equal amount of proteins were diluted with 5× Laemmli samples loading buffer and boiled for five minutes. The proteins were subjected to sodium dodecyl sulfate (SDS)-polyacrylamide gel electrophoresis and analyzed by Western blots. Briefly, after electrophoresis, proteins were transferred on polyvinylidene difluoride (PVDF) membrane at 100 volt for 3 h in cold room. Membrane was blocked with 5% non-fat dry milk/TBST (20 mM Tris-Cl, pH 7.4; 150 mM NaCl with 0.1% Tween-20) for 4 h at room temperature followed by incubation in primary antibodies diluted in 2.5% non-fat dry milk/TBST for overnight at 4° C. After washing with TBST, membrane was incubated with secondary antibodies (horseradish peroxidase-conjugated goat anti-rabbit or goat anti-mouse IgG; Santa Cruz Biotechnology, Dallas, Tex.) diluted in 2.5% non-fat dry milk/TBST for 3 h at room temperature. Signals were detected by chemiluminiscence detection kit (Pierce/Thermo Fisher Scientific, Rockford, Ill.). Primary antibodies used were cleaved caspase-3 and β-actin (Cell Signaling Technology), N-myc and p53 (Santa Cruz Biotechnology).
# At cellular level, mitochondria- or receptor (Fas/FasL)-mediated pathways activate caspase signaling cascade which in turn induces DNA damage and initiates programmed cell death (apoptosis). To determine whether SsnB-induced cell death is mediated by caspase activation, Western blotting as well as immunofluorescence assay were performed to detect the active form of caspase-3 in neuroblastoma cells treated with SsnB for 2 days (SH-SY5Y and IMR-32 cells), 3 days (NGP cells) or 4 days (SKNF-1 and SK-N-BE(2) cells). The number of cleaved caspase-3 positive cells were quantitated by ImageJ programme and plotted. […]
# [4] = tested on: N-myc in IMR-32, NGP and SK-N-BE(2) cells; assay: N-myc protein level by Western blotting
# Method: After treatment with SsnB, cells were collected, washed with 1×PBS, and lysed with 1× cell lysis buffer (Cell Signaling Technology, Danvers, Mass.) containing phenylmethylsulfonyl fluoride (PMSF) and protease inhibitors (aprotinin and leupeptin) for 30 min on ice, and centrifuged at 12000×rpm for 10 min at 4° C. Supernatant (total cell protein) was collected and stored at −80° C. Protein concentration was determined by bicinchoninic acid method using BCA protein assay kit (Pierce/ThermoScientific, Waltham, Mass.). Equal amount of proteins were diluted with 5× Laemmli samples loading buffer and boiled for five minutes. The proteins were subjected to sodium dodecyl sulfate (SDS)-polyacrylamide gel electrophoresis and analyzed by Western blots. Briefly, after electrophoresis, proteins were transferred on polyvinylidene difluoride (PVDF) membrane at 100 volt for 3 h in cold room. […] Signals were detected by chemiluminiscence detection kit (Pierce/Thermo Fisher Scientific, Rockford, Ill.). […]
# The level of N-myc proteins was evaluated from 2 days (IMR-32), 3 days (NGP cells) or 4 days (SK-N-BE(2) cells) SsnB-treated N-myc amplified neuroblastoma cells by Western blotting, and protein signal intensity was measured by ImageJ programme and plotted. […]
# [5] = SsnB 1 μM, nonsignificant vs control
structure (smiles),measurement,setting,value
"O=c1occ2c3c(ccc(O)c13)Oc1ccc(O)cc1-2 [SsnB, 8,5′-dihydroxy-4-phenyl-5,2′-oxidoisocoumarin]",H2DCFDA fluorescence intensity vs DMSO,"[1]; SsnB 1 μM, nonsignificant",almost similar
same,H2DCFDA fluorescence intensity vs DMSO,"[1]; SsnB 10 μM, p<0.05",significantly increased
same,cellular GSH level,[2]; SsnB 1 μM,slightly higher or equal to control levels
same,cellular GSH level,"[2]; SsnB 10 μM, 2, 3 or 4 days depending on line, p<0.05",~40 % of control
same,"cleaved caspase-3 level, Western blot",[3]; [5],almost undetectable levels
same,"cleaved caspase-3 protein bands (17 and 19 kDa), Western blot",[3]; SsnB 10 μM,present
same,cleaved caspase-3 positive cells (immunofluorescence),[3]; SsnB 10 μM vs DMSO or SsnB 1 μM,significantly increased
same,exposure time at which caspase-3 cleavage is seen,"[3]; SsnB 10 μM, SH-SY5Y cells, time points 6, 12, 24, 48 h",≤ 6 h
same,reduction in N-myc protein expression,[4]; [5],not observed
same,N-myc protein expression,"[4]; SsnB 10 μM, 2 days (IMR-32), 3 days (NGP), 4 days (SK-N-BE(2))",inhibited the expression of N-myc protein
